Results from patent US10842152B2, “Isothiazolo-based bicycles, processes for their preparation and their use as herbicides and/or plant growth regulators” (Bayer CropScience Aktiengesellschaft, priority 2017, dated 2020).

Tests used:
Assay type in all cases: in vivo
[1] = tested on: Amaranthus retroflexus; experiment: Herbicidal effect pre-emergence; settings: 320 g/ha, visual grading after ca. 3 weeks vs untreated controls
Text: (§1) Herbicidal activities of the compounds of the formulae (G1) or (G2) according to the invention were investigated against the following harmful plants: • ALOMY=Alopecurus myosuroides • ECHCG=Echinochloa crus-galli • SETVI=Setaria viridis • ABUTH=Abutilon theophrasti • AMARE=Amaranthus retroflexus • PHBPU=Pharbitis purpurea • POLCO=Polygonum convolvulus (=Fallopia convolvulus) • STEME=Stellaria media • VIOTR=Viola tricolor
(§2) Seeds of mono- and dicotyledonous weed plants and crop plants are sown in wood-fiber pots in sandy loam and covered with soil. The compounds according to the invention, formulated in the form of wettable powders (WP) or as emulsifiable concentrates (EC), are then applied to the surface of the covering soil as aqueous suspension or emulsion, with the addition of 0.5% of an additive, at an application rate of 600 l of water/ha (converted).
(§3) Following treatment, the pots are placed in a greenhouse and kept under optimum growth conditions for the test plants. The visual grading of the damage to the test plants is carried out after ca. 3 weeks in comparison to untreated controls (herbicidal effect in percent (%): 100% effect=plants have died off, 0% effect=as control plants).

[2] = tested on: Setaria viridis; experiment: Herbicidal effect pre-emergence; settings: 320 g/ha, visual grading after ca. 3 weeks vs untreated controls
Text: as §1, §2, §3

[3] = tested on: Viola tricolor; experiment: Herbicidal effect pre-emergence; settings: 320 g/ha, visual grading after ca. 3 weeks vs untreated controls
Text: as §1, §2, §3

[4] = tested on: Amaranthus retroflexus; experiment: Herbicidal effect post-emergence; settings: 320 g/ha, visual grading after ca. 3 weeks (Table 9)
Text: as §1
(§4) Seeds of mono- and dicotyledonous weed plants and crop plants are sown in wood-fiber pots in sandy loam, covered with soil and grown in a greenhouse under controlled growth conditions. 2 to 3 weeks after sowing, the test plants are sprayed in the single-leaf stage. The compounds according to the invention, formulated in form of wettable powders (WP) or as emulsifiable concentrates (EC), are then sprayed onto the green plant parts as aqueous suspension or emulsion, with the addition of 0.5% of an additive, at an application rate of 600 l of water/ha (converted). After the test plants had been in the greenhouse for ca. 3 weeks under optimum growth conditions, the effect of the preparations is assessed visually in comparison with untreated controls (herbicidal effect in percent (%): 100% effect=plants have died off, 0% effect=as control plants).

[5] = tested on: Setaria viridis; experiment: Herbicidal effect post-emergence; settings: 320 g/ha, visual grading after ca. 3 weeks (Table 9)
Text: as §1, §4

[6] = tested on: Viola tricolor; experiment: Herbicidal effect post-emergence; settings: 320 g/ha, visual grading after ca. 3 weeks (Table 9)
Text: as §1, §4

SMILES	herbicidal effect AMARE [1] [%]	herbicidal effect SETVI [2] [%]	herbicidal effect VIOTR [3] [%]	herbicidal effect AMARE [4] [%]	herbicidal effect SETVI [5] [%]	herbicidal effect VIOTR [6] [%]
COCc1cc2c(NC(=O)C(F)(F)C(F)(F)F)nsc2c(=O)n1CC1CCCCC1 [Example I-034]	100	100	100			
C=Cc1cc2c(N)nsc2c(=O)n1CC1CCCCC1 [Example I-051]	90	90	100			
CCCc1cc2c(NC(=O)C(F)(F)C(F)(F)F)nsc2c(=O)n1CC1CCCCC1 [Example I-032]	80	100	80			
CCc1cc2c(N)nsc2c(=O)n1CC1CCCCC1 [Example I-020]				100	100	100
CCc1cn(CC2CCCCC2)c(=O)c2snc(NC(=O)C(F)(F)C(F)(F)F)c12 [Example I-107]	100	80	100			
O=C(Nc1nsc2c(=O)n(CC3CCCCC3Cl)cc(Cl)c12)C(F)F (racemic) [Example I-159]	100	100	100			
C/C(=N/OCC1CC1)c1cn(CC2CCCCC2)c(=O)c2snc(N)c12 [Example I-167]	100	100	100			
CC(C)Cc1cc2c(NC(=O)C(F)(F)F)nsc2c(=O)n1CC1CCCCC1 [Example I-056]	90	90	100	90	100	90
CCO/N=C(/C)c1cn(CC2CCCCC2)c(=O)c2snc(N)c12 [Example I-141]				100	100	100
CC(=O)OCc1cc2c(NC(=O)C(F)(F)C(F)(F)F)nsc2c(=O)n1CC1CCCCC1 [Example I-035]	100	100	80			
Cc1ccc(-c2cn(CC3CCCCC3)c(=O)c3snc(N)c23)o1 [Example I-132]				80	100	90
C=CCc1cn(CC2CCCCC2)c(=O)c2snc(N)c12 [Example I-143]				100	100	100
CO/N=C(/C)c1cn(CC2CCCCC2)c(=O)c2snc(N)c12 [Example I-134]				100	80	100
Nc1nsc2c(=O)n(CC3CCCCC3)cc(C(=O)O)c12 [Example I-170]	100	100	90			
C/C=C/c1cn(CC2CCCCC2)c(=O)c2snc(N)c12 [Example I-118]	90	90	80	100	100	100
C=C(OCC)c1cn(CC2CCCCC2)c(=O)c2snc(N)c12 [Example I-133]	90	90	100			
CCC(=O)Nc1nsc2c(=O)n(CC3CCCCC3Cl)cc(Cl)c12 (racemic) [Example I-173]	90	100	100			
CC(=O)OCc1cc2c(N)nsc2c(=O)n1CC1CCCCC1 [Example I-027]	100	90	90			
COCC#Cc1cn(CC2CCCCC2)c(=O)c2snc(N)c12 [Example I-103]	90	80	100	100	100	100
